Results taken from ChEMBL document CHEMBL3352500, “Identification and characterization of an anti-pseudomonal dichlorocarbazol derivative displaying anti-biofilm activity” (Bioorg Med Chem Lett, 2014).
Converted amounts (≈) assume the structure as drawn. The source made the active and inactive calls. The rule behind the calls is not given here.

Tests used:
Pseudomonas aeruginosa [1] = test: Antibacterial activity against Pseudomonas aeruginosa after 24 hrs by two-fold broth microdilution method; format: functional
Staphylococcus aureus [2] = test: Antibacterial activity against Staphylococcus aureus SH1000; format: functional
Porphyromonas gingivalis [3] = test: Antibacterial activity against Porphyromonas gingivalis ATCC 33277; format: functional
[4] = system: Staphylococcus epidermidis; test: Antibacterial activity against Staphylococcus epidermidis RP62A; format: functional
Escherichia coli [5] = test: Antibacterial activity against Escherichia coli TG1; format: functional
Staphylococcus aureus [6] = test: Antibiofilm activity against Staphylococcus aureus SH1000 after 24 hrs; format: functional
[7] = Cytotoxicity against human mesenchymal stem cells assessed as cell viability at 4.63 ug/ml after 2 hrs; format: cell-based; conditions: read-out: Activity
Pseudomonas aeruginosa [8] = test: Antibacterial activity against Pseudomonas aeruginosa clinical isolate PA1256; format: functional
Pseudomonas aeruginosa [9] = test: Antibiofilm activity against Pseudomonas aeruginosa on smooth titanium disc at 3.7 ug/ml after 19 hrs by confocal laser scanning microscopy; format: functional, organism-based
[10] = system: Staphylococcus epidermidis; test: Antibiofilm activity against Staphylococcus epidermidis RP62A after 72 hrs; format: functional
Pseudomonas aeruginosa [11] = test: Antibacterial activity against ticarcillin-resistant Pseudomonas aeruginosa clinical isolate PA08; format: functional
Pseudomonas aeruginosa [12] = test: Antibacterial activity against ticarcillin-resistant Pseudomonas aeruginosa clinical isolate PA1271; format: functional
Pseudomonas aeruginosa [13] = test: Bactericidal activity against Pseudomonas aeruginosa; format: functional
Pseudomonas aeruginosa [14] = test: Antibacterial activity against Pseudomonas aeruginosa YM64 expressing mexAB-oprM::FRT/mexXY::FRT/mexCD-oprJ::FRT/mexEF-oprN::FRT deletion mutant; format: functional
Pseudomonas aeruginosa [15] = test: Antibiofilm activity against Pseudomonas aeruginosa assessed as decrease of culturable cells in biofilm at >= 4.63 ug/ml after 24 hrs by plate counting method; format: functional, organism-based
Pseudomonas aeruginosa [16] = test: Antibacterial activity against ticarcillin/piperacillin/ceftazidime/cefepime-resistant Pseudomonas aeruginosa clinical isolate PA1255; format: functional
Pseudomonas aeruginosa [17] = test: Antibacterial activity against ticarcillin/cefepime-resistant Pseudomonas aeruginosa clinical isolate PA1250; format: functional
Pseudomonas aeruginosa [18] = test: Antibacterial activity against ticarcillin/piperacillin-resistant Pseudomonas aeruginosa clinical isolate PA346; format: functional
Pseudomonas aeruginosa [19] = test: Antibiofilm activity against Pseudomonas aeruginosa on smooth titanium disc assessed as reduction in total area fraction at 1 to 12 ug/ml after 19 hrs by confocal laser scanning microscopy; format: functional
Pseudomonas aeruginosa [20] = test: Antibiofilm activity against Pseudomonas aeruginosa PA14 after 24 hrs; format: functional
[21] = Cytotoxicity against human endothelial cells assessed as effect on tube formation at 4.63 ug/ml after 4 hrs; format: cell-based; conditions: endothelial cell
Escherichia coli [22] = test: Antibiofilm activity against Escherichia coli TG1 after 24 hrs; format: functional
Pseudomonas aeruginosa [23] = test: Antibacterial activity against ticarcillin-resistant Pseudomonas aeruginosa clinical isolate PA53; format: functional
[24] = Cytotoxicity against human endothelial cells at 4.63 ug/ml after 2 hrs; format: cell-based; conditions: endothelial cell
Pseudomonas aeruginosa [25] = test: Antibacterial activity against wild-type Pseudomonas aeruginosa YM; format: functional
Pseudomonas aeruginosa [26] = test: Antibacterial activity against Pseudomonas aeruginosa clinical isolate PA1270; format: functional
Porphyromonas gingivalis [27] = test: Antibiofilm activity against Porphyromonas gingivalis ATCC 33277 after 72 hrs; format: functional
Pseudomonas aeruginosa [28] = test: Antibacterial activity against ticarcillin-resistant Pseudomonas aeruginosa clinical isolate PA424; format: functional
Pseudomonas aeruginosa [29] = test: Antibacterial activity against Pseudomonas aeruginosa PA14; format: functional
Pseudomonas aeruginosa [30] = test: Antibiofilm activity against Pseudomonas aeruginosa on smooth titanium disc assessed as dead cells in biofilm at 12 ug/ml after 19 hrs by confocal laser scanning microscopy relative to control; format: functional, organism-based
[31] = Cytotoxicity against human osteoblasts assessed as cell viability at 4.63 ug/ml after 2 hrs; format: cell-based, Osteoblast; conditions: read-out: Activity
Pseudomonas aeruginosa [32] = test: Antibacterial activity against ticarcillin-resistant Pseudomonas aeruginosa clinical isolate PA129; format: functional

OC(CNCC1CCCO1)Cn1c2ccc(Cl)cc2c2cc(Cl)ccc21 (stereo not drawn)
MIC (Pseudomonas aeruginosa [1]): 18.5 µg/mL (≈ 47 µM)

OCCN(CCO)CC(O)Cn1c2ccc(Cl)cc2c2cc(Cl)ccc21 (stereo not drawn)
MIC (Pseudomonas aeruginosa [1]): > 74 µg/mL

GENTAMICIN
MIC (Staphylococcus aureus [2]): 12.5 µg/mL

CCN(CC)CC(O)Cn1c2ccc(Cl)cc2c2cc(Cl)ccc21 (stereo not drawn)
MIC (Pseudomonas aeruginosa [1]): 37 µg/mL (≈ 101 µM)

OC(CN1CCCCC1)Cn1c2ccc(Cl)cc2c2cc(Cl)ccc21 (stereo not drawn)
MIC (Pseudomonas aeruginosa [1]): 74 µg/mL (≈ 196 µM)

OCCn1c2ccccc2c2cc(Cl)ccc21
MIC (Pseudomonas aeruginosa [1]): 18.5 µg/mL (≈ 75.3 µM)

N=C(NCCCCCCNC(=N)NC(=N)Nc1ccc(Cl)cc1)NC(=N)Nc1ccc(Cl)cc1 [CHLORHEXIDINE]
MIC (Porphyromonas gingivalis [3]): 4 µg/mL (≈ 7.91 µM)

O=C(O)c1cn(C2CC2)c2cc(N3CCNCC3)c(F)cc2c1=O [CIPROFLOXACIN]
MIC [4]: 1.56 µg/mL (≈ 4.71 µM)

CC1COc2c(N3CCN(C)CC3)c(F)cc3c(=O)c(C(=O)O)cn1c23 (stereo not drawn) [OFLOXACIN]
MIC (Escherichia coli [5]): 0.1 µg/mL (≈ 0.277 µM)

CCC(C)NCC(O)Cn1c2ccc(Cl)cc2c2cc(Cl)ccc21 (stereo not drawn)
MBIC (Staphylococcus aureus [6]): 9.25 µg/mL | viability at 2 h, 4.63 ug/ml [7]: > 80% | MIC (Pseudomonas aeruginosa [8]): 9.25 µg/mL (≈ 25.3 µM) | Activity (Pseudomonas aeruginosa [9]): Active | MBIC [10]: 9.25 µg/mL | MIC (Pseudomonas aeruginosa [1]): 18.5 µg/mL (≈ 50.6 µM) | MIC (Pseudomonas aeruginosa [11]): 18.5 µg/mL (≈ 50.6 µM) | MIC (Porphyromonas gingivalis [3]): 4.63 µg/mL (≈ 12.7 µM) | MIC [4]: 9.25 µg/mL (≈ 25.3 µM) | MIC (Pseudomonas aeruginosa [12]): 18.5 µg/mL (≈ 50.6 µM) | MBC (Pseudomonas aeruginosa [13]): 18.5 µg/mL (≈ 50.6 µM) | MIC (Pseudomonas aeruginosa [14]): 4.63 µg/mL (≈ 12.7 µM) | Activity (Pseudomonas aeruginosa [15]): Active | MIC (Pseudomonas aeruginosa [16]): 18.5 µg/mL (≈ 50.6 µM) | MIC (Pseudomonas aeruginosa [17]): 18.5 µg/mL (≈ 50.6 µM) | MIC (Pseudomonas aeruginosa [18]): 18.5 µg/mL (≈ 50.6 µM) | inhibition (INH) (Pseudomonas aeruginosa [19]): 50% | MBIC (Pseudomonas aeruginosa [20]): 18.5 µg/mL | Activity [21]: Non-toxic | MIC (Staphylococcus aureus [2]): 9.25 µg/mL (≈ 25.3 µM) | MBIC90 (Escherichia coli [22]): 2.22 µg/mL | MIC (Pseudomonas aeruginosa [23]): 18.5 µg/mL (≈ 50.6 µM) | Activity [24]: Toxic | MIC (Pseudomonas aeruginosa [25]): 18.5 µg/mL (≈ 50.6 µM) | MIC (Pseudomonas aeruginosa [26]): 18.5 µg/mL (≈ 50.6 µM) | MBIC (Porphyromonas gingivalis [27]): 5.11 µg/mL | MIC (Pseudomonas aeruginosa [28]): 18.5 µg/mL (≈ 50.6 µM) | MIC (Escherichia coli [5]): 4.63 µg/mL (≈ 12.7 µM) | MIC (Pseudomonas aeruginosa [29]): 18.5 µg/mL (≈ 50.6 µM) | Activity (Pseudomonas aeruginosa [30]): Active | viability at 2 h, 4.63 ug/ml [31]: > 80% | MIC (Pseudomonas aeruginosa [32]): 18.5 µg/mL (≈ 50.6 µM)

CN(C)CC(O)Cn1c2ccc(Br)cc2c2cc(Br)ccc21 (stereo not drawn)
MIC (Pseudomonas aeruginosa [1]): 18.5 µg/mL (≈ 43.4 µM)

CN(CCO)CC(O)Cn1c2ccc(Cl)cc2c2cc(Cl)ccc21 (stereo not drawn)
MIC (Pseudomonas aeruginosa [1]): 18.5 µg/mL (≈ 50.4 µM)
